We go through five compounds from PMC4425807, “Investigating interactions between phentermine, dexfenfluramine, and 5-HT2C agonists, on food intake in the rat” (Psychopharmacology, 2014).

The target of series [1] is T1, 5-HT2C (Homo sapiens, UniProt P28335).
T1 sequence (P28335 33-458): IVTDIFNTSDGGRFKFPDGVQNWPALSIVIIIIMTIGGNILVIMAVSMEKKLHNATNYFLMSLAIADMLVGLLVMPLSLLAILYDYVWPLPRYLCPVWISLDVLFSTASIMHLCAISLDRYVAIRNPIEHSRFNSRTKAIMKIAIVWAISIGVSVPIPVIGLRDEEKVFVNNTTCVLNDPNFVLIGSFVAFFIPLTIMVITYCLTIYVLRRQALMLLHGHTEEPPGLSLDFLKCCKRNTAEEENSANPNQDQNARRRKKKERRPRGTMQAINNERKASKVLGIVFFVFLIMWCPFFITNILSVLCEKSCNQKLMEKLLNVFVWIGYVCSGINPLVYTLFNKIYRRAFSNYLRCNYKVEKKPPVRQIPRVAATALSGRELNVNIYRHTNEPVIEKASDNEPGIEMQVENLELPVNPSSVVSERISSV
Nature of the series: Functional activity at 5-HT2C. The conditions noted are these: internally generated data. In kind it is biochemical.

Series [2] concerns the target T2, 5-HT2B (Homo sapiens, UniProt P41595). Kind of series: 125I-DOI binding at 5-HT2B. The conditions noted are these: internally generated data.
A short description of series [3]: Brain drug concentrations 60 min after single oral dose (LC-MS/MS). In kind it is in vivo, rat. The conditions noted are these: for concentration at 60 min: brain. As for the experimental part: In vivo methods employed for pharmacokinetic studies were identical to those described for food intake studies except that after dosing, rats were not placed into new cages with grid floors. At 60 min after dosing (and 30 min after food access), rats were anesthetized with isoflurane, blood was collected via cardiac puncture, and brains were removed from the cranium. Blood samples were dispensed into sodium heparinized vials and capped and stored at 4 °C. Plasma was separated from formed elements in blood by centrifugation (10 min at 3,000×g) and frozen. Brains were rinsed with ice-cold phosphate-buffered saline, blotted dry, weighed, and frozen. Plasma and brain samples were stored at −80 °C prior to bioanalytical analysis.
Brain samples were thawed on ice, placed into 50 mL plastic conical tubes, and two volumes of purified water/gram of brain was added. Brains were homogenized using a mechanical variable speed tissue homogenizer; 50 μL of brain homogenate was transferred to a 1-mL plastic tube. A volume of acetonitrile (200 μL) containing internal standard was added to brain homogenate, mixed by vortex, and centrifuged (15 min at 3,700 rpm). […] Supernatants were analysed for lorcaserin, AR630, phentermine, dexfenfluramine, and the major metabolite of dexfenfluramine, norfenfluramine. Compound concentrations were determined using a LC-MS/MS method. Analytes were separated by reverse phase chromatography (Kinetex 3 × 30 mm, C18, 2.6 μm, 100 Å, HPLC Column, Phenomenex, Torrance, CA) using a binary gradient on a Shimadzu LC system (Shimadzu Corp., Columbia, MD). The gradient consisted of 0.1 % formic acid in water and 0.1 % formic acid in acetonitrile with a flow rate of 650 μL/min.

Series [4] deals with T3, 5-HT2A (Homo sapiens, UniProt P28223). Kind of series: 125I-DOI binding at 5-HT2A. To be noted: internally generated data.
The subject of the next series is food intake in the rat. Nature of the series: Food intake in food-deprived rats: single-drug dose-responses and isobolographic analysis. In kind it is in vivo. To be noted: PO, 18 h food-deprived rat, 30 min intake measured 1 h after drug; from logarithmic regressions; read-out: ED50, inhibition of food intake. How it is done:
Male Sprague–Dawley rats (Harlan, San Diego, CA) weighing 250–350 g were used for behavioural studies. Upon arrival at the test facility, animals were triple housed within a holding room controlled for humidity, temperature, and light (lights off 1800–0600 hours). Rats received food (2018SX Teklad Rodent Diet) and water ad libitum unless stated otherwise. Over the course of all studies, rats were re-used up to four times, with at least one week of washout between tests. Rats were assigned to treatment groups pseudo-randomly from test to test. One week prior to initial drug testing, all rats were subject to a single food intake test which was identical to all subsequent drug tests, except that all rats received vehicle administration. Group size for all studies, including brain sampling, was eight.
Eighteen hours prior to food intake testing (1600 hours), food was removed from home cages. On the next day, animals were weighed and placed into cages with grid floors at 1000 hours, and allowed to acclimate to these cages for a 90-min period with free access to water and no food. At 1130 hours, rats were injected with compounds via oral gavage. Thirty minutes after injection (1200 hours), animals were allowed access to food. Food was then weighed at 30 min after food exposure (1 h after drug administration). Upon test conclusion, rats were returned to home cages with ad libitum access to food and water.
Doses were selected based upon previous in-house experience with these compounds and ascended in twofold steps. Two subsequent studies were run for each isobologram, with dose–responses of each compound pair run in combination with a fixed, low dose of the other (phentermine 1 mg/kg; AR630 1 mg/kg; dexfenfluramine 0.5 mg/kg; lorcaserin 1 mg/kg). To approximate the true experimental errors in these experiments, a bootstrapping with replacement approach was used (Huber [1981]; Launer and Wilkinson [1979]) in which five data sets were generated from random samples of the measured data points for both the individual dose–responses and for each drug/dose combination. […] A line of additivity with confidence limits was then drawn between the dose–responses of each compound alone.

For series [5], the target named is T1, 5-HT2C. Kind of series: 125I-DOI binding at 5-HT2C. To be noted: internally generated data.
Series [6] addresses T2, 5-HT2B. Kind of series: Functional activity at 5-HT2B. In kind it is biochemical. The conditions noted are these: internally generated data.
Series [7] has as its target T3, 5-HT2A. Kind of series: Functional activity at 5-HT2A. In kind it is biochemical. The conditions noted are these: internally generated data.
For series [8] the following is noted: when administered alone; cited from earlier work.
For series [9] the following is noted: combining topiramate with phentermine, humans; ref Qsymia Drug Label information; cited from earlier work.
Setting [10] is: read-out: intrinsic activity (IA).

Like-named read-outs stand apart in the source and are kept apart here. Marks after values point to notes of the source that are not given here. Where only a bound is given, the exact number is not on record here.

T3 sequence (P28223 whole entry): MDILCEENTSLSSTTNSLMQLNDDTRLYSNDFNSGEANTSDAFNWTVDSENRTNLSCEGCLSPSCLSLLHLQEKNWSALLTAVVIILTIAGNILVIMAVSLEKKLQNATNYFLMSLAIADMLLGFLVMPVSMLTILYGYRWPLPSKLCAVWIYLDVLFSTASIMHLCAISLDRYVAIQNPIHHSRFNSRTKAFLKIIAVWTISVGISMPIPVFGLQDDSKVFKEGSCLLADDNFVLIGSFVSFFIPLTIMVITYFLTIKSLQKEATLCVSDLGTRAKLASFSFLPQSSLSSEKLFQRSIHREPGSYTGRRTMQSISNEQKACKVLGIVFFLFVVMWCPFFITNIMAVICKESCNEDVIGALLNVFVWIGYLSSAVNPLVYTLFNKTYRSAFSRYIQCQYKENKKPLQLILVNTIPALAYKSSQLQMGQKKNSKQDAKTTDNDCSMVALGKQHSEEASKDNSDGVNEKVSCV
T2 sequence (P41595 whole entry, species assumed): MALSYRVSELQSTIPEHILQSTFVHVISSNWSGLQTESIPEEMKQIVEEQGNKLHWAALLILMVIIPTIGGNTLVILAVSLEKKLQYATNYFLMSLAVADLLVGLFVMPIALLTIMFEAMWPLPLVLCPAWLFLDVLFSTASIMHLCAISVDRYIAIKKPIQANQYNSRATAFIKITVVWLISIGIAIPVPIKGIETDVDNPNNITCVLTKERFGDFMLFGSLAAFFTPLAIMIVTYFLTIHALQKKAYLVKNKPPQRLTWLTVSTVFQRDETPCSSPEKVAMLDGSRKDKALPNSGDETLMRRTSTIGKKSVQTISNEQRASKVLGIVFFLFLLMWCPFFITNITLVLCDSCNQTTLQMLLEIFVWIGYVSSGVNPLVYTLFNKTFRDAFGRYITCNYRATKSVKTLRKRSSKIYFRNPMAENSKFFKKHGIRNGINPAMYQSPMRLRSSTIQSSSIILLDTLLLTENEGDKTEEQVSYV

Regarding `C[C@@H]1CNCCN1c1cc(Cl)ccc1F` [AR630], the 50% effective concentration (EC50) at 5-HT2C [1] worked out at 10 nM; at 5-HT2B [6], 1000 nM; on 5-HT2A [7] it was 400 nM. In addition, the Emax at 5-HT2C [1] (setting [10]) was 100%; on 5-HT2B [6] (setting [10]) it was less than 10%; at 5-HT2A [7] (setting [10]), 60%. Also, the Ki came out at 100 nM on 5-HT2B [2], 120 nM on 5-HT2A [4] and 4 nM on 5-HT2C [5]. In addition, in series [3] (AR630 1 mg/kg PO with phentermine 1 mg/kg, 60 min, rat), the “Fold-change in brain concentration, combination vs alone” value (shortened to “Fold-change in brain concentration”) is given as 1.12. Moreover, the concentration at 60 min in series [3] (Sprague-Dawley, rat, oral, AR630 1 mg/kg PO with phentermine 1 mg/kg, 60 min, rat, mean ± SEM, read-out: Brain concentration, combination) is 92 ± 25 ng/g; in [3] (Sprague-Dawley, rat, po, 1 mg/kg, AR630 1 mg/kg PO alone, 60 min, rat, mean ± SEM, read-out: Brain concentration, alone), 82 ± 14 ng/g. The ED50 with food intake in the rat was 4.25 mg/kg.
For `CC(N)Cc1cccc(C(F)(F)F)c1` (centres unmarked) [Norfenfluramine, norfenfluramine], the “brain concentration of metabolite relative to parent dexfenfluramine” value in series [3] (after dexfenfluramine PO, 60 min, rat) is on record as “approximately sixfold”. The “Brain concentration, alone” value in [3] (metabolite norfenfluramine after dexfenfluramine 0.5 mg/kg PO alone, 60 min, rat, mean ± SEM) is listed as 805 ± 50 ng/g. In [3] (metabolite norfenfluramine after dexfenfluramine 0.5 mg/kg PO with phentermine 1 mg/kg, 60 min, rat), the “Fold-change in brain concentration” value is recorded as 0.94. In series [3] (metabolite norfenfluramine after dexfenfluramine 0.5 mg/kg PO with phentermine 1 mg/kg, 60 min, rat, mean ± SEM), the “Brain concentration, combination” value is on record as 760 ± 27 ng/g.
Turning to `C[C@H]1CNCCc2ccc(Cl)cc21` [Lorcaserin], the concentration at 60 min came to 1380 ng/g in series [3] (Sprague-Dawley, rat, oral, 1 mg/kg, lorcaserin 1 mg/kg PO alone, 60 min, rat, mean ± SEM, read-out: Brain concentration, alone) and 1440 ng/g in series [3] (Sprague-Dawley, rat, oral, lorcaserin 1 mg/kg PO with phentermine 1 mg/kg, 60 min, rat, mean ± SEM, read-out: Brain concentration, combination). Moreover, the “Fold-change in brain concentration” value in series [3] (lorcaserin 1 mg/kg PO with phentermine 1 mg/kg, 60 min, rat) was 1.05. In the series on food intake in the rat, the ED50 worked out at 1.98 mg/kg.
As for `CCN[C@@H](C)Cc1cccc(C(F)(F)F)c1` [Dexfenfluramine, (S)+-fenfluramine], the concentration at 60 min in [3] (Sprague-Dawley, rat, oral, 0.5 mg/kg, dexfenfluramine 0.5 mg/kg PO alone, 60 min, rat, mean ± SEM, read-out: Brain concentration, alone) was 130 ± 13 ng/g; in series [3] (Sprague-Dawley, rat, oral, dexfenfluramine 0.5 mg/kg PO with phentermine 1 mg/kg, 60 min, rat, mean ± SEM, read-out: Brain concentration, combination), 141 ± 19 ng/g. Also, the “Fold-change in brain concentration” value in [3] (dexfenfluramine 0.5 mg/kg PO with phentermine 1 mg/kg, 60 min, rat) was 1.08. Also, the median effective dose (ED50) in the series on food intake in the rat amounted to 1.44 mg/kg.
With `CC(C)(N)Cc1ccccc1` [Phentermine], the “fraction of dose excreted as unchanged phentermine in urine” value in series [8] was 70–80%. The Kp at 60 min in series [3] (Sprague-Dawley, brain/plasma, oral, phentermine dosed alone or in the various combinations, rat (data not shown), read-out: brain/plasma ratio) was approximately 13. Besides, the concentration at 60 min in [3] (Sprague-Dawley, rat, oral, 1 mg/kg, phentermine 1 mg/kg PO alone, 60 min, rat, AR630 study, mean ± SEM, read-out: Brain concentration, alone) worked out at 226 ± 32 ng/g; in series [3] (Sprague-Dawley, rat, oral, 1 mg/kg, phentermine 1 mg/kg PO alone, 60 min, rat, dexfenfluramine study, mean ± SEM, read-out: Brain concentration, alone), 298 ± 29 ng/g; in series [3] (Sprague-Dawley, rat, oral, 1 mg/kg, phentermine 1 mg/kg PO alone, 60 min, rat, lorcaserin study, mean ± SEM, read-out: Brain concentration, alone), 298 ± 29 ng/g; in series [3] (Sprague-Dawley, rat, oral, phentermine 1 mg/kg PO with AR630 1 mg/kg, 60 min, rat, mean ± SEM, read-out: Brain concentration, combination), 866 ± 120 ng/g; in series [3] (Sprague-Dawley, rat, oral, phentermine 1 mg/kg PO with dexfenfluramine 0.5 mg/kg, 60 min, rat, mean ± SEM, read-out: Brain concentration, combination), 787 ± 57 ng/g; in [3] (Sprague-Dawley, rat, oral, phentermine 1 mg/kg PO with lorcaserin 1 mg/kg, 60 min, rat, mean ± SEM, read-out: Brain concentration, combination), 335 ± 18 ng/g. The “Fold-change in brain concentration” value is reported as 3.80** in [3] (phentermine 1 mg/kg PO with AR630 1 mg/kg, 60 min, rat); 3.8 in [3] (phentermine 1 mg/kg PO with AR630 1 mg/kg, 60 min, rat, listed as phentermine); 2.60** in series [3] (phentermine 1 mg/kg PO with dexfenfluramine 0.5 mg/kg, 60 min, rat); 2.6 in series [3] (phentermine 1 mg/kg PO with dexfenfluramine 0.5 mg/kg, 60 min, rat, listed as phentermine); 1.12 in [3] (phentermine 1 mg/kg PO with lorcaserin 1 mg/kg, 60 min, rat); 1.1 in [3] (phentermine 1 mg/kg PO with lorcaserin 1 mg/kg, 60 min, rat, listed as phentermine). The 50% effective dose (ED50) in the series with food intake in the rat was determined as 2.45 mg/kg. The “increase in phentermine area under the curve” value in [9] is reported as 42%.
